One compound from US20110244497A1, “METHOD FOR JUDGING SUSCEPTIBILITY OF CANCER CELLS TO ANTHRACYCLINE ANTICANCER AGENT AND COMPUTER PROGRAM” (SYSMEX CORPORATION, priority 2010, published 2011) can be followed below.

The assay concerns 29 types of breast cancer cell lines. As to the kind of experiment: Measurement of IC50 of doxorubicin, Celltiter Glo Luminescent Cell Viability Assay. To be noted: median over 29 human breast cancer cell lines; doxorubicin 0-2000 nM; growth measured 72 hours after culture-medium exchange; used as threshold sensitive/nonsensitive. It counts as cell-based. The procedure: 29 types of breast cancer cell lines shown in Reference example 1 were inoculated into wells on two sheets of microplates at 5000 cells/100 uL/well using culture media containing doxorubicin at 0 nM, 250 nM, 500 nM, 750 nM, 1000 nM, and 2000 nM concentrations, followed by culturing for 24 hours.
Culture media containing doxorubicin at respective concentrations were prepared and the culture medium exchange was performed. Immediately after the culture-medium exchange, the growth of the cells on one of the microplates was measured using Celltiter Glo Luminescent Cell Viavility Assay (Cat#G7571: manufactured by Promega KK.). The remaining microplate was cultured under the culture conditions shown in Reference example 1 for 72 hours after the culture-medium exchange. Thereafter, the growth of the cells was measured using Celltiter Glo Luminescent Cell Viavility Assay (Cat#G7571: manufactured by Promega KK.).
On the basis of the number of the living cells measured, the concentration (IC50) of doxorubicin (the number of […]×100=50) was determined.
A general note: In ATP-based viability assays light output follows the ATP content of the culture.

The IC50 is the concentration at which inhibition is half-maximal. Compound `COc1cccc2c1C(=O)c1c(O)c3c(c(O)c1C2=O)C[C@@](O)(C(=O)CO)C[C@@H]3O[C@H]1C[C@H](N)[C@H](O)[C@H](C)O1` [doxorubicin] gave an IC50 of 392 nM.
